test system: MOLM-13 cells; assay: Cell viability assay (CELLTITER-GLO), MOLM-13 cells; assay type: cell-based; conditions: Homo sapiens, MOLM-13, 72 h; Table 2; compound at 10 μM, 3 days; read-out: Effect on MOLM-13 cell viability (% DMSO)
Procedure: MOLM-13 cells, MV-4-11 cells, H23, and H358 cells were independently cultured in RPMI 1640 media supplemented with 10% fetal bovine serum, streptomycin and penicillin. The cells were plated in white walled 96-well plates at 4,000 cells/well. The cells were incubated in DMSO (control) or a compound for 3 days at 37° C. under 5% CO2. A CELLTITER-GLO® reagent (100 μL) was then added to each well. After a 10 min incubation with shaking, luminescence was measured using an ENVISION® multimode plate reader.
In Tables 1 and 2, each compound was tested at 10 μM; and in Table 3, each compound was tested at 1 μM. In Tables 1 to 3, the cell viability values as % DMSO are reported as “A,” “B,” “C,” or “D;” where “A” represents a % viability value of less than 10%; “B” represents a % viability value of no less than 10% and less than 25%; “C” represents a % viability value of no less than 25% and less than 50%; and “D” represents a % viability value of no less than 50%. Compound A is […]

Structure (SMILES) | viability at 10 µM [%]
C=CC(=O)N1CC(N2Cc3ccc(-c4cc(O)cc5ccccc45)cc3N(CCOCCOCCC(=O)NCCOc3cccc4c3C(=O)N(C3CCC(=O)NC3=O)C4=O)C2=O)C1 (stereo not drawn) [Compound 11, 3-(2-(2-(3-(1-Acryloylazetidin-3-yl)-7-(3-hydroxynaphthalen-1-yl)-2-oxo-3,4-dihydroquinazolin-1(2H)-yl)ethoxy)ethoxy)-N-(2-((2-(2,6-dioxopiperidin-3-yl)-1,3-dioxoisoindolin-4-yl)oxy)ethyl)propanamide] | ≥ 50
CCC(=O)N1CC(N2Cc3ccc(-c4cc(O)cc5ccccc45)cc3N(CCOCCOCCOCCNc3cccc4c3C(=O)N(C3CCC(=O)NC3=O)C4=O)C2=O)C1 (stereo not drawn) [Compound 12, 2-(2,6-Dioxopiperidin-3-yl)-4-((2-(2-(2-(2-(7-(3-hydroxynaphthalen-1-yl)-2-oxo-3-(1-propionylazetidin-3-yl)-3,4-dihydroquinazolin-1(2H)-yl)ethoxy)ethoxy)ethoxy)ethyl)amino)-isoindoline-1,3-dione] | ≥ 50
C=CC(=O)N1CCN(c2ncnc3c(F)c(-c4c(O)cccc4F)c(Cl)cc23)C(CC(=O)NCCCCCNC(=O)NCc2cc3c(s2)C(=O)N(C2CCC(=O)NC2=O)C3)C1 (stereo not drawn) [Compound 13, 2-(4-Acryloyl-1-(6-chloro-8-fluoro-7-(2-fluoro-6-hydroxyphenyl)quinazolin-4-yl)piperazin-2-yl)-N-(5-(3-((5-(2,6-dioxopiperidin-3-yl)-6-oxo-5,6-dihydro-4H-thieno[2,3-c]pyrrol-2-yl)methyl)ureido)pentyl)acetamide] | ≥ 50
C=CC(=O)N1CC(c2nc3ccc(-c4cc(O)cc5ccccc45)cc3c(=O)n2CCOCCOCCNCc2ccc(OCc3scc4c3CN([C@H]3CCC(=O)NC3=O)C4=O)cc2)C1 [Compound 14, (S)-3-(1-((4-(((2-(2-(2-(2-(1-Acryloylazetidin-3-yl)-6-(3-hydroxynaphthalen-1-yl)-4-oxoquinazolin-3(4H)-yl)ethoxy)ethoxy)ethyl)amino)methyl)phenoxy)methyl)-4-oxo-4H-thieno[3,4-c]pyrrol-5(6H)-yl)piperidine-2,6-dione] | ≥ 50
C=CC(=O)N1CC(c2nc3ccc(-c4cc(O)cc5ccccc45)cc3c(=O)n2CCNCc2ccc(OCc3scc4c3CN([C@H]3CCC(=O)NC3=O)C4=O)cc2)C1 [Compound 15, (S)-3-(1-((4-(((2-(2-(1-Acryloylazetidin-3-yl)-6-(3-hydroxynaphthalen-1-yl)-4-oxoquinazolin-3(4H)-yl)ethyl)amino)methyl)phenoxy)methyl)-4-oxo-4H-thieno[3,4-c]pyrrol-5(6H)-yl)piperidine-2,6-dione] | ≥ 50
C=CC(=O)N1CC(N2Cc3ccc(-c4cc(O)cc5ccccc45)cc3N(CCCCNCc3ccc(OCc4scc5c4CN([C@H]4CCC(=O)NC4=O)C5=O)cc3)C2=O)C1 [Compound 16, (S)-3-(1-((4-(((4-(3-(1-Acryloylazetidin-3-yl)-7-(3-hydroxynaphthalen-1-yl)-2-oxo-3,4-dihydroquinazolin-1(2H)-yl)butyl)amino)methyl)phenoxy)methyl)-4-oxo-4H-thieno[3,4-c]pyrrol-5(6H)-yl)piperidine-2,6-dione] | ≥ 50
C=CC(=O)N1CC(c2nc3ccc(-c4cc(O)cc5ccccc45)cc3c(=O)n2CC(=O)NCCOCCOCCOCCNc2cccc3c2C(=O)N(C2CCC(=O)NC2=O)C3=O)C1 (stereo not drawn) [Compound 17, 2-(2-(1-Acryloylazetidin-3-yl)-6-(3-hydroxynaphthalen-1-yl)-4-oxoquinazolin-3(4H)-yl)-N-(2-(2-(2-(2-((2-(2,6-dioxopiperidin-3-yl)-1,3-dioxoisoindolin-4-yl)amino)ethoxy)ethoxy)ethoxy)-ethyl)acetamide] | ≥ 50
C=CC(=O)N1CC(c2nc3ccc(-c4cc(O)cc5ccccc45)cc3c(=O)n2CCNCc2ccc(OCc3scc4c3CN(C3CCC(=O)NC3=O)C4=O)cc2)C1 (stereo not drawn) [Compound 18, 3-(1-((4-(((2-(2-(1-Acryloylazetidin-3-yl)-6-(3-hydroxynaphthalen-1-yl)-4-oxoquinazolin-3(4H)-yl)ethyl)amino)methyl)phenoxy)methyl)-4-oxo-4H-thieno[3,4-c]pyrrol-5(6H)-yl)piperidine-2,6-dione] | ≥ 50
C=CC(=O)N1CC(N2Cc3ccc(-c4cc(O)cc5ccccc45)cc3N(CCCCNCc3ccc(OCc4scc5c4CN(C4CCC(=O)NC4=O)C5=O)cc3)C2=O)C1 (stereo not drawn) [Compound 19, 3-(1-((4-(((4-(3-(1-Acryloylazetidin-3-yl)-7-(3-hydroxynaphthalen-1-yl)-2-oxo-3,4-dihydroquinazolin-1(2H)-yl)butyl)amino)methyl)phenoxy)methyl)-4-oxo-4H-thieno[3,4-c]pyrrol-5(6H)-yl)piperidine-2,6-dione] | ≥ 50
C=CC(=O)N1CC(c2nc3ccc(-c4cc(O)cc5ccccc45)cc3c(=O)n2CCOCCNCc2ccc(OCc3scc4c3CN(C3CCC(=O)NC3=O)C4=O)cc2)C1 (stereo not drawn) [Compound 21, 3-(1-((4-(((2-(2-(2-(1-Acryloylazetidin-3-yl)-6-(3-hydroxynaphthalen-1-yl)-4-oxoquinazolin-3(4H)-yl)ethoxy)ethyl)amino)methyl)phenoxy)methyl)-4-oxo-4H-thieno[3,4-c]pyrrol-5(6H)-yl)piperidine-2,6-dione] | ≥ 50

same assay, conditions: Homo sapiens, MOLM-13, 72 h; Table 3; compound at 1 μM, 3 days; read-out: Effect on MOLM-13 cell viability (% DMSO)

Structure (SMILES) | viability at 1 µM [%]
C=CC(=O)N1CCN(c2ncnc3c(F)c(-c4c(F)cccc4OCCOCCOCCC(=O)NCCOc4cccc5c4C(=O)N(C4CCC(=O)NC4=O)C5=O)c(Cl)cc23)CC1 (stereo not drawn) [Compound 3, 3-(2-(2-(2-(4-(4-Acryloylpiperazin-1-yl)-6-chloro-8-fluoroquinazolin-7-yl)-3-fluorophenoxy)ethoxy)ethoxy)-N-(2-((2-(2,6-dioxopiperidin-3-yl)-1,3-dioxoisoindolin-4-yl)oxy)ethyl)propanamide] | ≥ 50
CCC(=O)N1CC(N2Cc3ccc(-c4cc(O)cc5ccccc45)cc3N(CCNCc3ccc(OCc4scc5c4CN(C4CCC(=O)NC4=O)C5=O)cc3)C2=O)C1 (stereo not drawn) [Compound 4, 3-(1-((4-(((2-(7-(3-Hydroxynaphthalen-1-yl)-2-oxo-3-(1-propionylazetidin-3-yl)-3,4-dihydroquinazolin-1(2H)-yl)ethyl)amino)methyl)phenoxy)methyl)-4-oxo-4H-thieno[3,4-c]pyrrol-5(6H)-yl)piperidine-2,6-dione] | 10 to 25
CCC(=O)N1CC(N2Cc3ccc(-c4cc(O)cc5ccccc45)cc3N(CCOCCNCc3ccc(OCc4scc5c4CN(C4CCC(=O)NC4=O)C5=O)cc3)C2=O)C1 (stereo not drawn) [Compound 5, 3-(1-((4-(((2-(2-(7-(3-Hydroxynaphthalen-1-yl)-2-oxo-3-(1-propionylazetidin-3-yl)-3,4-dihydroquinazolin-1(2H)-yl)ethoxy)ethyl)amino)methyl)phenoxy)methyl)-4-oxo-4H-thieno[3,4-c]pyrrol-5(6H)-yl)piperidine-2,6-dione] | ≥ 50
CCC(=O)N1CCN(c2ncnc3c(F)c(-c4c(F)cccc4OCCOCCOCCC(=O)NCCNc4cccc5c4C(=O)N(C4CCC(=O)NC4=O)C5=O)c(Cl)cc23)CC1 (stereo not drawn) [Compound 6, 3-(2-(2-(2-(6-Chloro-8-fluoro-4-(4-propionylpiperazin-1-yl)quinazolin-7-yl)-3-fluorophenoxy)ethoxy)ethoxy)-N-(2-((2-(2,6-dioxopiperidin-3-yl)-1,3-dioxoisoindolin-4-yl)amino)ethyl)propanamide] | ≥ 50
CCC(=O)N1CC(N2Cc3ccc(-c4cc(O)cc5ccccc45)cc3N(CCOCCOCCC(=O)NCCOc3cccc4c3C(=O)N(C3CCC(=O)NC3=O)C4=O)C2=O)C1 (stereo not drawn) [Compound 7, N-(2-((2-(2,6-Dioxopiperidin-3-yl)-1,3-dioxoisoindolin-4-yl)oxy)ethyl)-3-(2-(2-(7-(3-hydroxynaphthalen-1-yl)-2-oxo-3-(1-propionylazetidin-3-yl)-3,4-dihydroquinazolin-1(2H)-yl)ethoxy)ethoxy)propanamide] | ≥ 50
CCC(=O)N1CCN(c2ncnc3c(F)c(-c4c(F)cccc4OCCOCCOCCC(=O)NCCOc4cccc5c4C(=O)N(C4CCC(=O)NC4=O)C5=O)c(Cl)cc23)CC1 (stereo not drawn) [Compound 8, 3-(2-(2-(2-(6-Chloro-8-fluoro-4-(4-propionylpiperazin-1-yl)quinazolin-7-yl)-3-fluorophenoxy)ethoxy)ethoxy)-N-(2-((2-(2,6-dioxopiperidin-3-yl)-1,3-dioxoisoindolin-4-yl)oxy)ethyl)propanamide] | ≥ 50
CCC(=O)N1CCN(c2ncnc3c(F)c(-c4c(F)cccc4OCCOCCOCCOCCNc4cccc5c4C(=O)N(C4CCC(=O)NC4=O)C5=O)c(Cl)cc23)CC1 (stereo not drawn) [Compound 9, 4-((2-(2-(2-(2-(2-(6-Chloro-8-fluoro-4-(4-propionylpiperazin-1-yl)quinazolin-7-yl)-3-fluorophenoxy)ethoxy)ethoxy)ethoxy)ethyl)amino)-2-(2,6-dioxopiperidin-3-yl)isoindoline-1,3-dione] | ≥ 50
C=CC(=O)N1CC(N2Cc3ccc(-c4cc(O)cc5ccccc45)cc3N(CCOCCC(=O)NCCOc3cccc4c3C(=O)N(C3CCC(=O)NC3=O)C4=O)C2=O)C1 (stereo not drawn) [Compound 10, 3-(2-(3-(1-Acryloylazetidin-3-yl)-7-(3-hydroxynaphthalen-1-yl)-2-oxo-3,4-dihydroquinazolin-1(2H)-yl)ethoxy)-N-(2-((2-(2,6-dioxopiperidin-3-yl)-1,3-dioxoisoindolin-4-yl)oxy)ethyl)propanamide] | ≥ 50

Reference: patent US12630547B2, “RAS protein degraders, pharmaceutical compositions thereof, and their therapeutic applications” (BioTheryX, Inc., priority 2019, dated 2026)
